Measurements published in patent publication US20120136033A1, “Small Molecule Antagonists of Phosphatidylinositol-3,4,5-Triphosphate (PIP3) and Uses Thereof” (President and Fellows of Harvard College, priority 2009, published 2012).

Assays:
Btk PH domain = target: T1, Btk PH domain (Homo sapiens, UniProt Q06187); experiment: PH domain translocation assay, GFP-fused Btk PH domain; type: cell-based; conditions: 100 μM, 2 hr, PDGF stimulation
T1 construct: Btk PH domain-GFP vector was purchased from Signagen Laboratories
Method: Cells were transfected with the corresponding GFP-fusion vectors, serum starved overnight, and incubated with 100 μM PITs or PIT-1is for 2 hr, followed by stimulation with 100 ng/ml PDGF or 250 ng/ml PMA for 5 min. The translocation was analyzed using fluorescent microscope and was quantitated by counting the number of cells with translocated PH domains in five random fields.
To begin characterizing cellular activity of PITs, a PH domain translocation assay was performed, measuring PIP3-induced association of GFP-fused PH domains with the plasma membrane. This method provides useful means for monitoring status of the PH domain/PIP3 binding in the intact cells. Varnai P et al. (1999) J Biol Chem 274:10983-9. Several PH-domain-containing proteins, which are known to bind PIP3 specifically and efficiently, were examined. […] Oikawa T et al. (2004) Nat Cell Biol 6:420-6.

HUVEC [1] = experiment: HUVEC migration, wound healing and transwell assays; type: cell-based, human
Method: (§1) Two models of cell migration were used, a transwell migration model and a wound closure model. Migration of cancer and endothelial cells was evaluated using 24-transwell Boyden chamber (Costar, Bedford, Mass.) with a polystyrene membrane (6.5 mm diameter, 10 μm thickness, and 8 μm pore size). Cells were suspended in serum-free media and seeded in the upper compartment of each well (2×10^4 cells/well) in the presence or absence of different compounds at the indicated concentrations. The lower compartment contained 600 μl of serum-free culture media supplemented with growth factors. After an 8-hr incubation at 37° C., cells were fixed and stained with 0.1% crystal violet. Non-migrating cells on the upper surface of the filter were removed, and the stained cells that migrated to the lower side were photographed using a phase-contrast microscope (Nikon, Japan) in five random fields. The cells were lysed with 10% acetic acid, and colorimetric determination was made at 595 nm using Wallac Victor 3 plate reader.
Cancer or endothelial cells were seeded into fibronectin-coated 96-well plates (2×10^4 cells/well). […]
Second, HUVEC were serum starved and treated with PITs (25, 50 100 μM) or PIT-1is (100 μM) for 8 hr, followed by bFGF (10 ng/ml) stimulation for 15 min. […] The number of cell ruffles/lamellipodia was counted in five random fields.

HUVEC [2] = experiment: endothelial tube formation assay on Matrigel; type: cell-based, human
Method: The tube formation assay was performed in 96-well plates. Wells were pre-coated with 70 μl of the Matrigel basement membrane matrix (BD Biosciences) per well for 1 hr at 37° C. HUVEC were suspended in serum-free M199 medium and plated on Matrigel at a density of 2×10^4 cells per well. PIT-1 was added at indicated concentrations (3.125-100 μM). After an 8 hr incubation at 37° C., phase-contrast images of the endothelial tubes were obtained using a Nikon TE2000 microscope, and tube formation was assessed by counting the number of closed tubes in five random fields from each well.

human cancer cells = experiment: transwell (Boyden chamber) migration of cancer cells; type: cell-based; conditions: for inhibition of cancer cell migration: transwell / wound healing models
Method: as §1

eIF-1 = eIF-1 (Homo sapiens, UniProt P41567); experiment: NMR HSQC specificity control, eIF-1; type: binding
caspase-3 = experiment: Western blot of caspase-3 cleavage and PARP processing; type: cell-based
Source text: Since PI3K/PIP3/Akt signaling plays a critical role in the inhibition of apoptosis (Datta S R et al. (1999) Genes Dev 13:2905-27), the possibility that PITs induce apoptosis was examined. […] Proapoptotic Bcl-2 family members Bax and Bak are important mediators of apoptosis. Wei M C et al. (2001) Science 292:727-30. […] Non-apoptotic mechanisms of cell death may also play some additional, albeit less important, role in PIT-induced killing, as some cell death was still observed in Bax/Bak-deficient cells and in the presence of zVAD.fmk.

SUM-159 cells = experiment: acquisition of the invasive phenotype by SUM-159 cells; type: cell-based, human; conditions: reversible
Bcl-xL = Bcl-xL (Homo sapiens, UniProt Q07817); experiment: NMR HSQC specificity control, Bcl-xL; type: binding
PH123 (Akt PH domain) = target: T2, PH123 (Akt PH domain) (Homo sapiens, UniProt P31749); experiment: lipid overlay assay of PIP3/PH123 binding
T2 construct: recombinant 1-123 amino acid N-terminal fragment of human Akt1; made in house; host or cells: E. coli BL21(DE3)

LC3-II = experiment: autophagic marker LC3-II in U87MG cells; type: cell-based, human
Source text: Changes in cell metabolism have emerged in recent years as an important component of PI3K/PIP3/Akt signaling, contributing to the regulation of cell viability and transformation by the PI3K/Akt pathway. Datta S R et al. (1999) Genes Dev 13:2905-27; Elstrom R L et al. (2004) Cancer Res 64:3892-9. Therefore, the possibility that PIT-1 may cause dysregulation of energy homeostasis and induction of the metabolic stress in cancer cells, which may contribute to the PIT-induced cell death, was investigated. […] Hardie D G (2007) Nat Rev Mol Cell Biol 8:774-85. […] Mathew R et al. (2007) Nat Rev Cancer 7:961-7. […] Takeuchi H et al. (2005) Cancer Res 65:3336-46.

[3] = test system: differentiated HL-60 cells; experiment: fMLP-stimulated HL-60 cell polarization; type: cell-based; conditions: 100 μM, 2 hr
Method: In another set of experiments, the ability of PITs to inhibit fMLP-stimulated HL-60 cell polarization was examined. Differentiated HL-60 cells were treated with PIT-1, PIT-2, PIT-1i-1, or PIT-1i-2, each at 100 μM for 2 hr, followed by stimulation with 100 nM fMLP for 3 min. Actin was stained and analyzed using fluorescent microscopy. The number of the polarized cells was counted in five random fields.

T1 sequence (Q06187 3-133 limits assumed): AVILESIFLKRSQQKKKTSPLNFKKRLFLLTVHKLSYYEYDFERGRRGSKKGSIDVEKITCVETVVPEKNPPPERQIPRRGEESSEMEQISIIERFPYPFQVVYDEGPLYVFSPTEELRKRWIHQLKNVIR
Sequence of eIF-1 (P41567 whole entry, species assumed): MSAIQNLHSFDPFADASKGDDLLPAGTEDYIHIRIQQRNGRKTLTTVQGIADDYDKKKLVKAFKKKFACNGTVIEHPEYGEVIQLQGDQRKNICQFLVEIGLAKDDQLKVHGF
T2 sequence (P31749 1-123): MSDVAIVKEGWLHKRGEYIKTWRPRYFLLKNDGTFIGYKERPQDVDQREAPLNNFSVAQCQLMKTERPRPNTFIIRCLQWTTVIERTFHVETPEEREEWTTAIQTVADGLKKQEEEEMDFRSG
Sequence of Bcl-xL (Q07817 whole entry, species assumed, the tested form may be a part): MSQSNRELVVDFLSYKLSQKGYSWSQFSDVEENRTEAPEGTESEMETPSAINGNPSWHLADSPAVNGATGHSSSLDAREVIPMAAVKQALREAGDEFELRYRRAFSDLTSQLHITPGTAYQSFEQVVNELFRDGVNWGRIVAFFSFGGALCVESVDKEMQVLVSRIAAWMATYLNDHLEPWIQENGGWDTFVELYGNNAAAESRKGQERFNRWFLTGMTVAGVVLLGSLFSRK

Row | SMILES | inhibition of translocation of Btk PH domain to the plasma membrane (Btk PH domain) | migration of HUVEC cells (HUVEC [1]) | inhibition of tube formation (HUVEC [2]) | inhibition of cancer cell migration (human cancer cells) | changes in HSQC spectrum of eIF-1 (eIF-1) | cleavage/activation of caspase-3 and processing of PARP (caspase-3) | IC50 (HUVEC [2]; Homo sapiens, HUVEC on Matrigel, 8 hr, 3.125-100 μM, read-out: IC50, inhibition of tube formation) [µM] | acquisition of the invasive phenotype by SUM-159 cells (SUM-159 cells) | changes in HSQC spectrum of Bcl-xL (Bcl-xL) | effect on PIP3/PH123 binding, lipid overlay (PH123 (Akt PH domain)) | expression of autophagic marker LC3-II (LC3-II) | growth factor-induced transwell migration of human cancer cells (human cancer cells; 8 hr) | fMLP-stimulated polarization of differentiated HL-60 neutrophils [3]
1 | O=C1NC(=S)S/C1=C\c1cc(O)c([N+](=O)[O-])cc1Cc1ccccc1 [PIT-2] | significantly inhibited | efficiently blocked migration | also observed | efficiently inhibited cell migration |  |  |  |  |  |  |  |  | 
2 | O=C(NC(=S)Nc1cc([N+](=O)[O-])cc(Cl)c1O)c1ccccc1 [PIT-1] | significantly inhibited | efficiently blocked migration |  | much stronger than that of Akt kinase inhibitor VIII | did not elicit any changes | induced the cleavage/activation | 7.75 | blocked acquisition of the invasive phenotype | did not elicit any changes | concentration-dependent inhibitory effect | prominently increased | substantially inhibited | efficient inhibition
